Measured values from patent US12612412B2, “Antiviral heterocyclic compounds” (Enanta Pharmaceuticals, Inc., priority 2021, dated 2026).

Key:
[1] = test system: genotype A, "Long" strain RSV; test: RSV-A assay (CPE protection in Hep-2 cells, ATPlite readout); format: cell-based, Human respiratory syncytial virus (HRSV); conditions: human respiratory syncytial virus, genotype A “Long” strain RSV, MOI 0.1, CPE protection, read-out: Human RSV-A (“Long”)
Outline: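 Hep-2 cells (8,000/well) infected with RSV Long strain at MOI 0.1 in the presence of 2-fold compound dilutions in duplicate. After 5 days, cell viability measured by ATPlite luminescence, normalized between virus-only and uninfected cell controls; EC50 reported.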

[2] = test system: HMPV clinical isolate TN/1501/A1; test: HMPV antiviral assay Method-B (clinical isolate TN/1501/A1 in LLC-MK2 cells, ATP-Lite readout); format: cell-based, Human metapneumovirus (HMPV); conditions: human metapneumovirus, LLC-MK2, 144 h, hMPV WT1501 (clinical isolate TN/1501/A1), 6 days
Outline: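 EC50 derived by four-parameter logistic fit of percent cell health, measured by ATP-Lite luminescence and normalised to virus-only and uninfected-cell controls. Compounds run in duplicate from 10 μM top, 3-fold, 10 points. Infection: LLC-MK2 cells, MOI 0.014, 2 μg/mL final TPCK-trypsin, serum-free, 6 days at 37° C.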

Row | Compound | EC50 [1] | EC50 [2]
1 | COc1cc(C(=O)NC[C@](O)(c2cc3c(c(-c4cc(Cl)ccc4F)n2)OC[C@]3(C)C(N)=O)C2(F)CC2)cc2cn(C3CC3)nc12 [Example 735] | < 200 nM | < 500 nM
2 | Cc1cnc2c(OC(F)F)cc(C(=O)NC[C@](O)(c3cc4c(c(-c5cc(Cl)ccc5F)n3)OC[C@]4(C)C(N)=O)C3(F)CC3)cc2c1 [Example 736] | < 200 nM | < 500 nM
3 | COc1cc(C(=O)NC[C@](O)(c2cc3c(c(-c4cc(Cl)ccc4F)n2)OC[C@]3(C)C(N)=O)C2(F)CC2)cc2cc(Cl)c(C)nc12 [Example 737] | < 200 nM | < 500 nM
4 | Cc1cnc2c(Cl)cc(C(=O)NC[C@](O)(c3cc4c(c(-c5ccc(F)cc5)n3)OC[C@]4(C)C(N)=O)C3(F)CC3)cc2c1 [Example 738] | < 200 nM | < 500 nM
5 | Cc1nc2c(OC3CC3)cc(C(=O)NC[C@](O)(c3cc4c(c(-c5ccc(F)cc5)n3)OC[C@]4(C)C(N)=O)C3(F)CC3)cc2cc1Cl [Example 739] | < 200 nM | < 500 nM
6 | Cc1cnc2c(Cl)cc(C(=O)NC[C@](O)(c3cc4c(c(-c5ccc(F)cc5)n3)OC[C@]4(C)C(N)=O)C3CC3)cc2c1 [Example 740] | < 200 nM | < 500 nM
7 | COc1cc(C(=O)NC[C@](O)(c2cc3c(c(-c4ccc(F)cc4)n2)OC[C@]3(C)C(N)=O)C2CC2)cc2sc(C3CC3)nc12 [Example 741] | < 200 nM | < 500 nM
8 | COc1cc(C(=O)NC[C@](O)(c2cc3c(c(-c4ccc(F)cc4)n2)OC[C@]3(C)C(N)=O)C2(F)CC2)cc2sc(C3CC3)nc12 [Example 742] | < 200 nM | < 500 nM
9 | COc1cc(C(=O)NC[C@](O)(c2cc3c(c(-c4ccc(F)c(F)c4F)n2)OC[C@]3(C)C(N)=O)C2(F)CC2)cc2cn(C3(F)CC3)nc12 [Example 743] | < 200 nM | < 500 nM
10 | COc1cc(C(=O)NC[C@](O)(c2cc3c(c(-c4ccc(F)c(F)c4F)n2)OC[C@]3(C)C(N)=O)C2(F)CC2)cc2cn(C(F)F)nc12 [Example 744] | < 200 nM | < 500 nM
11 | COc1cc(C(=O)NC[C@](O)(c2cc3c(c(-c4ccc(F)c(F)c4Cl)n2)OC[C@]3(C)C(N)=O)C2(F)CC2)cc2cn(C3CC3)nc12 [Example 745] | < 200 nM | < 500 nM
12 | Cc1cnc2c(OC(F)F)cc(C(=O)NC[C@](O)(c3cc4c(c(-c5ccc(F)c(F)c5Cl)n3)OC[C@]4(C)C(N)=O)C3(F)CC3)cc2c1 [Example 746] | < 200 nM | < 500 nM
13 | COc1cc(C(=O)NC[C@](O)(c2cc3c(c(-c4ccc(F)c(F)c4Cl)n2)OC[C@]3(C)C(N)=O)C2(F)CC2)cc2cc(Cl)c(C)nc12 [Example 747] | < 200 nM | < 500 nM
14 | COc1cc(C(=O)NC[C@](O)(c2cc3c(c(-c4ccc(F)c(F)c4Cl)n2)OC[C@]3(C)C(N)=O)C2(F)CC2)cc2cn(C(F)F)nc12 [Example 748] | < 200 nM | < 500 nM
15 | COc1cc(C(=O)NC[C@](O)(c2cc3c(c(-c4ccc(F)c(C(F)(F)F)c4)n2)OC[C@]3(C)C(N)=O)C2(F)CC2)cc2cn(C3CC3)nc12 [Example 749] | < 200 nM | < 500 nM
16 | Cc1cnc2c(OC(F)F)cc(C(=O)NC[C@](O)(c3cc4c(c(-c5ccc(F)c(C(F)(F)F)c5)n3)OC[C@]4(C)C(N)=O)C3(F)CC3)cc2c1 [Example 750] | < 200 nM | < 500 nM
17 | COc1cc(C(=O)NC[C@](O)(c2cc3c(c(-c4ccc(F)c(C(F)(F)F)c4)n2)OC[C@]3(C)C(N)=O)C2(F)CC2)cc2cn(C(F)F)nc12 [Example 751] | < 200 nM | < 500 nM
18 | COc1cc(C(=O)NC[C@](O)(c2cc3c(c(-c4ccc(F)c(Cl)c4F)n2)OC[C@]3(C)C(N)=O)C2(F)CC2)cc2cn(C3CC3)nc12 [Example 752] | < 200 nM | < 500 nM
19 | Cc1cnc2c(OC(F)F)cc(C(=O)NC[C@](O)(c3cc4c(c(-c5ccc(F)c(Cl)c5F)n3)OC[C@]4(C)C(N)=O)C3(F)CC3)cc2c1 [Example 753] | < 200 nM | < 500 nM
20 | COc1cc(C(=O)NC[C@](O)(c2cc3c(c(-c4ccc(F)c(Cl)c4F)n2)OC[C@]3(C)C(N)=O)C2(F)CC2)cc2cn(C(F)F)nc12 [Example 754] | < 200 nM | < 500 nM
21 | C[C@]1(C(N)=O)COc2c1cc([C@@](O)(CNC(=O)c1cc(Cl)c3nn(C4CC4)cc3c1)C1(F)CC1)nc2-c1ccc(F)cc1 [Example 755] | < 200 nM | < 500 nM
22 | COc1cc(C(=O)NC[C@](O)(c2cc3c(c(-c4ccc(F)cc4)n2)OC[C@]3(C)C(N)=O)C2(F)CC2)cc2cn(C3(F)CC3)nc12 [Example 756] | < 200 nM | < 500 nM
23 | C[C@]1(C(N)=O)COc2c1cc([C@@](O)(CNC(=O)c1cc(Cl)c3nn(C4CC4)cc3c1)C1(F)CC1)nc2-c1ccc(F)c(F)c1F [Example 757] | < 200 nM | < 500 nM
24 | COc1cc(C(=O)NC[C@](O)(c2cc3c(c(-c4cc(Cl)c(F)cc4F)n2)OC[C@]3(C)C(N)=O)C2(F)CC2)cc2cn(C3CC3)nc12 [Example 758] | < 200 nM | < 500 nM
25 | C[C@]1(C(N)=O)COc2c1cc([C@@](O)(CNC(=O)c1cc(Cl)c3nn(C4CC4)cc3c1)C1(F)CC1)nc2-c1cc(Cl)c(F)cc1F [Example 759] | < 200 nM | < 500 nM
26 | COc1cc(C(=O)NC[C@](O)(c2cc3c(c(-c4cc(Cl)c(F)cc4F)n2)OC[C@]3(C)C(N)=O)C2(F)CC2)cc2cc(Cl)c(C)nc12 [Example 760] | < 200 nM | < 500 nM
27 | COc1cc(C(=O)NC[C@](O)(c2cc3c(c(-c4cccc(F)c4Cl)n2)OC[C@]3(C)C(N)=O)C(F)(F)F)cc2cn(C3CC3)nc12 [Example 761] | < 200 nM | < 500 nM
28 | COc1cc(C(=O)NC[C@](O)(c2cc3c(c(-c4ccc(F)cc4)n2)OC[C@]3(C)C(N)=O)C2CC2)cc2cc(C)nnc12 [Example 762] | < 200 nM | < 500 nM
29 | COc1cc(C(=O)NC[C@](O)(c2cc3c(c(-c4ccc(F)cc4)n2)OC[C@]3(C)C(N)=O)C2CC2)cc2cc(C3CC3)nnc12 [Example 763] | < 200 nM | < 500 nM
30 | COc1cc(C(=O)NC[C@](O)(c2cc3c(c(-c4ccc5c(c4)OC(F)(F)O5)n2)OC[C@]3(C)C(N)=O)C(F)(F)F)cc2cc(C)nnc12 [Example 764] | < 200 nM | < 500 nM

Second part, the molecule after the results:

Row | EC50 [1] | EC50 [2] | Compound
31 | < 200 nM | < 500 nM | COc1cc(C(=O)NC[C@](O)(c2cc3c(c(-c4ccc5c(c4)OC(F)(F)O5)n2)OC[C@]3(C)C(N)=O)C(F)(F)F)cc2cc(C3CC3)nnc12 [Example 765]
32 | < 200 nM | < 500 nM | COc1cc(C(=O)NC[C@](O)(c2cc3c(c(-c4cc(Cl)c(F)cc4F)n2)OC[C@]3(C)C(N)=O)C2(F)CC2)cc2cn(C(F)F)nc12 [Example 766]
33 | < 200 nM | < 500 nM | COc1cc(C(=O)NC[C@](O)(c2cc3c(c(-c4cc(Cl)c(F)cc4F)n2)OC[C@]3(C)C(N)=O)C2(F)CC2)cc2cc(Br)cnc12 [Example 767]
34 | < 200 nM | < 500 nM | COc1cc(C(=O)NC[C@](O)(c2cc3c(c(-c4ccc(F)c(Cl)c4F)n2)OC[C@]3(C)C(N)=O)C2(F)CC2)cc2cc(Br)cnc12 [Example 768]
35 | < 200 nM | < 500 nM | Cc1cnc2c(Nc3cnccn3)cc(C(=O)NC[C@](O)(c3cc4c(c(-c5ccc6c(c5)OC(F)(F)O6)n3)OC[C@]4(C)C(N)=O)C3CC3)cc2c1 [Example 773]
36 | < 200 nM | < 500 nM | COc1cc(C(=O)NC[C@](O)(c2cc3c(c(-c4ccc(F)c(F)c4Cl)n2)OC[C@]3(C)C(N)=O)C(F)(F)F)cc2cc(Cl)c(C)nc12 [Example 774]
37 | < 200 nM | < 500 nM | COc1cc(C(=O)NC[C@](O)(c2cc3c(c(-c4ccc(F)c(F)c4Cl)n2)OC[C@]3(C)C(N)=O)C(F)(F)F)cc2cn(C3(F)CC3)nc12 [Example 775]
38 | < 200 nM | < 500 nM | COc1cc(C(=O)NC[C@](O)(c2cc3c(c(-c4ccc(F)c(F)c4Cl)n2)OC[C@]3(C)C(N)=O)C(F)(F)F)cc2cn(C(F)F)nc12 [Example 776]
39 | < 200 nM | < 500 nM | Cc1nc2c(OC3CC3)cc(C(=O)NC[C@](O)(c3cc4c(c(-c5ccc(F)c(F)c5Cl)n3)OC[C@]4(C)C(N)=O)C(F)(F)F)cc2cc1Cl [Example 777]
40 | < 200 nM | < 500 nM | COc1cc(C(=O)NC[C@](O)(c2cc3c(c(-c4ccc(F)c(F)c4Cl)n2)OC[C@]3(C)C(N)=O)C(F)(F)F)cc2cc(Br)cnc12 [Example 778]
41 | < 200 nM | < 500 nM | Cc1cnc2c(Cl)cc(C(=O)NC[C@](O)(c3cc4c(c(-c5ccc(F)c(F)c5Cl)n3)OC[C@]4(C)C(N)=O)C(F)(F)F)cc2c1 [Example 779]
42 | < 200 nM | < 500 nM | C[C@]1(C(N)=O)COc2c1cc([C@@](O)(CNC(=O)c1cc(Cl)c3nn(C4CC4)cc3c1)C(F)(F)F)nc2-c1ccc(F)c(F)c1Cl [Example 780]
43 | < 200 nM | < 500 nM | Cc1cnc2c(OC(F)F)cc(C(=O)NC[C@](O)(c3cc4c(c(-c5ccc(F)c(F)c5Cl)n3)OC[C@]4(C)C(N)=O)C(F)(F)F)cc2c1 [Example 781]
44 | < 200 nM | < 500 nM | COc1cc(C(=O)NC[C@](O)(c2cc3c(c(-c4cc(F)c(F)c(Cl)c4)n2)OC[C@]3(C)C(N)=O)C(F)(F)F)cc2cn(C3CC3)nc12 [Example 782]
45 | < 200 nM | < 500 nM | COc1cc(C(=O)NC[C@](O)(c2cc3c(c(-c4cc(F)c(F)c(Cl)c4)n2)OC[C@]3(C)C(N)=O)C(F)(F)F)cc2cn(C(F)F)nc12 [Example 783]
